Data on 8 compounds can be found in ChEMBL document CHEMBL1201862, “PubChem BioAssay data set” (2004).

By GI50 is commonly meant the concentration that inhibits growth by half.

Some test systems named below: IGROV-1; SF-295; OVCAR-8; SK-MEL-28; SW-620; MDA-MB-231; MDA-N; LOX IMVI; UACC-257; TK-10; MCF7; SNB-19; DU-145; RPMI-8226; OVCAR-5; MOLT-4; COLO 205; T47D; SNB-75; A498.
Common to all, as to assay: DTP human tumour cell line panel, 48 h

Structures are written as SMILES.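 Growth conditions: 96-well plates. Treatment: test compound, 48 hours, 5 concentrations. Analysis: linear interpolation between bracketing concentrations; unreached endpoints set to highest concentration. GI50: concentration for 50% inhibition of growth.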 Active and inactive are the calls of the source. No stated cut-off is given here; in the data, active = GI50 up to about 1.1 µM and inactive = higher.

For the compound `Cc1ccc(C(=O)N(C2CCCCC2)C2CCCCC2)cc1/N=N/N(C)C`, the GI50 in the assay on IGROV-1 was 15.6 µM (inactive); in the assay on SF-295 it was 11.4 µM (inactive); in the assay on OVCAR-8, 8.81 µM (inactive); in the assay on SK-MEL-28, 7.14 µM (inactive); with SW-620, 8.83 µM (inactive); in the assay with MDA-MB-231, 12.6 µM (inactive). The GI50 was 15 µM (inactive) with MDA-N; 15.8 µM (inactive) in the assay with LOX IMVI; 12.9 µM (inactive) in the assay on UACC-257; 9.82 µM (inactive) in the assay with TK-10; 14.9 µM (inactive) in the assay on MCF7; 12.6 µM (inactive) in the assay with SNB-19. In addition, the GI50 with DU-145 was > 10 µM (inactive); in the assay with RPMI-8226 it was 8.75 µM (inactive); in the assay on OVCAR-5 it was 19 µM (inactive); with MOLT-4, 14.4 µM (inactive); in the assay on COLO 205 it was 17.7 µM (inactive); with T47D, 18 µM (inactive).
Take `CN(C)/N=N/c1[nH]cnc1C(N)=O` [DACARBAZINE]: the GI50 in the assay with IGROV-1 was 68.5 µM (inactive); with SF-295 it was 55.1 µM (inactive); in the assay with OVCAR-8, 44.5 µM (inactive); in the assay with SK-MEL-28 it was 86.5 µM (inactive); in the assay on SW-620, 55.1 µM (inactive); in the assay on MDA-MB-231, 51.3 µM (inactive). Besides, the GI50 in the assay on SNB-75 was 35.7 µM (inactive); in the assay with MDA-N, > 86.1 µM (inactive); in the assay on LOX IMVI it was 11.7 µM (inactive); with UACC-257, 49.8 µM (inactive); with TK-10, 41.6 µM (inactive); with MCF7, 89.7 µM (inactive). Further, the GI50 in the assay with SNB-19 was > 99.1 µM (inactive); in the assay with DU-145, 71.9 µM (inactive); with RPMI-8226, 19.1 µM (inactive); in the assay with OVCAR-5, 81.5 µM (inactive); in the assay with MOLT-4, 20.7 µM (inactive); in the assay on COLO 205 it was 78.9 µM (inactive). In addition, the GI50 with T47D was > 92.3 µM (inactive).
Take `CCN(C(=O)N[C@H](C(=O)N[C@@H](CSC)C(=O)N[C@@H](C)C(=O)OC)C(C)C)c1ccccc1`: the GI50 in the assay with IGROV-1 was 10.4 µM (inactive); in the assay on SF-295, 17.9 µM (inactive); in the assay with OVCAR-8, 17.2 µM (inactive); in the assay on SK-MEL-28, 15.3 µM (inactive); in the assay with SW-620, 14.6 µM (inactive); with MDA-MB-231, 15.1 µM (inactive). Besides, the GI50 in the assay on SNB-75 is 12.4 µM (inactive); in the assay on MDA-N, 17.3 µM (inactive); in the assay on LOX IMVI, 10.4 µM (inactive); with UACC-257, 12.4 µM (inactive); in the assay with TK-10, 13.6 µM (inactive); in the assay with MCF7, 16.1 µM (inactive). In addition, the GI50 with SNB-19 is 19.3 µM (inactive); in the assay on DU-145, 17.4 µM (inactive); with OVCAR-5 it was 15.5 µM (inactive); with MOLT-4 it was 8.3 µM (inactive); with COLO 205, 17.9 µM (inactive); in the assay with T47D, 26.4 µM (inactive).
For `c1ccc(-c2cc(-c3ccncc3)cc(-c3ccncc3)n2)cc1`, the GI50 is > 100 µM (inactive) in the assay on IGROV-1; 62.2 µM (inactive) in the assay with SF-295; > 100 µM (inactive) with OVCAR-8; > 100 µM (inactive) in the assay with SK-MEL-28; > 100 µM (inactive) in the assay with SW-620; > 100 µM (inactive) with MDA-MB-231. The GI50 in the assay with SNB-75 was 29 µM (inactive); in the assay on MDA-N, > 100 µM (inactive); with LOX IMVI it was > 100 µM (inactive); in the assay on UACC-257, > 100 µM (inactive); in the assay with TK-10, > 100 µM (inactive); in the assay on MCF7, 0.618 µM (active). For the same compound, the GI50 was 45.2 µM (inactive) with SNB-19; > 100 µM (inactive) in the assay with DU-145; > 100 µM (inactive) with RPMI-8226; > 100 µM (inactive) with OVCAR-5; > 100 µM (inactive) with MOLT-4; > 100 µM (inactive) with COLO 205. Further, in the assay on T47D, the GI50 was > 100 µM (inactive).
Turning to `CCOC(=O)C1(C#N)CC1`, the GI50 with IGROV-1, in the assay on SF-295, with OVCAR-8, in the assay on SK-MEL-28, in the assay with SW-620 and in the assay on MDA-MB-231 was > 100 µM (inactive) throughout. In addition, the GI50 in the assay on SNB-75, with MDA-N, with LOX IMVI, with UACC-257, in the assay with TK-10 and in the assay with MCF7 was > 100 µM (inactive) each time. Further, the GI50 in the assay on SNB-19, in the assay on DU-145, with OVCAR-5, in the assay on MOLT-4, with COLO 205 and in the assay on T47D was > 100 µM (inactive) each time.
Consider `O=[N+]([O-])c1ccc([I+]c2ccccc2)cc1`, for which the GI50 was 16.4 µM (inactive) with IGROV-1; 1.27 µM (inactive) in the assay with SF-295; 5.41 µM (inactive) in the assay on OVCAR-8; 3.6 µM (inactive) in the assay on SK-MEL-28; 4.49 µM (inactive) in the assay on SW-620; 3.95 µM (inactive) in the assay with MDA-MB-231. Besides, the GI50 in the assay on MDA-N was 6.56 µM (inactive); in the assay on UACC-257 it was 4.29 µM (inactive); in the assay on TK-10, 8.91 µM (inactive); in the assay with MCF7 it was 4.97 µM (inactive); with A498, 2.05 µM (inactive); with SNB-19, 5.52 µM (inactive). Also, the GI50 is 8.93 µM (inactive) in the assay with DU-145; 11.2 µM (inactive) in the assay on RPMI-8226; 7.98 µM (inactive) in the assay on OVCAR-5; 2.25 µM (inactive) in the assay with MOLT-4; 3.11 µM (inactive) with COLO 205; 6.52 µM (inactive) in the assay on T47D.
With `OC(COC(c1ccccc1)(c1ccccc1)c1ccccc1)C(O)CC1SCCS1` (configuration not stated), the GI50 in the assay with IGROV-1 is 10.2 µM (inactive); with OVCAR-8 it was 19.3 µM (inactive); in the assay on SK-MEL-28, 21.5 µM (inactive); in the assay on SW-620, 29 µM (inactive); with MDA-MB-231, 16.2 µM (inactive); in the assay with MDA-N, 19 µM (inactive). Moreover, the GI50 is 13.5 µM (inactive) in the assay on LOX IMVI; 27 µM (inactive) in the assay on UACC-257; 21 µM (inactive) in the assay with TK-10; 21.3 µM (inactive) in the assay with MCF7; 13.9 µM (inactive) with A498; 21.7 µM (inactive) with SNB-19. Also, the GI50 in the assay on DU-145 was 17.9 µM (inactive); in the assay on RPMI-8226, 5.22 µM (inactive); in the assay with OVCAR-5, 19.2 µM (inactive); with MOLT-4 it was 8.91 µM (inactive); with COLO 205, 14.7 µM (inactive); in the assay on T47D, 14.1 µM (inactive).
`N=c1[nH]cnc2c1nnn2C1C=CC(COS(N)(=O)=O)C1` (configuration not stated): the GI50 with IGROV-1 was 14.4 µM (inactive); in the assay on SF-295 it was 16.7 µM (inactive); in the assay with OVCAR-8 it was 2.38 µM (inactive); in the assay with SK-MEL-28, 3.21 µM (inactive); in the assay on SW-620, 11.6 µM (inactive); with MDA-MB-231, 8.07 µM (inactive). Also, the GI50 in the assay on SNB-75 was 4.05 µM (inactive); with MDA-N, 3.94 µM (inactive); in the assay on LOX IMVI it was 4.56 µM (inactive); in the assay on UACC-257, 14.7 µM (inactive); in the assay on TK-10, 3.18 µM (inactive); with MCF7, 10.4 µM (inactive). For the same compound, the GI50 with SNB-19 is 4.56 µM (inactive); in the assay with DU-145, 7.08 µM (inactive); in the assay with RPMI-8226, 3.59 µM (inactive); with OVCAR-5, 3.37 µM (inactive); in the assay on MOLT-4, 15.6 µM (inactive); with COLO 205 it was 3.59 µM (inactive). The GI50 in the assay on T47D is 3.94 µM (inactive).
